According to ChEMBL document CHEMBL6071160, “Identification of a novel 10-hydroxyevodiamine prodrug as a potent topoisomerase inhibitor with improved aqueous solubility for treatment of hepatocellular carcinoma” (Eur J Med Chem, 2024):
pIC50: −log10 of the molar value. The source made the active and inactive calls. No cut-off for these calls is given here.

Key:
[1] = system: SMMC-7721; test: Antiproliferative activity against human SMMC-7721 cells assessed as inhibition of cell proliferation incubated for 72 hrs by MTT assay; type: functional, cell-based; conditions: SMMC-7721, 72 h
[2] = Antiproliferative activity against human Doxorubicin-resistant SMMC-7721 cell assessed as inhibition of cell proliferation incubated for 72 hrs by MTT assay; type: functional, cell-based; conditions: SMMC-7721, 72 h
[3] = Chemical stability of compound at pH 7.4 assessed as residual rate measured after 2 days; type: physicochemical; conditions: buffer, time 2 day, read-out: Stability
[4] = Half life in Sprague-Dawley rat at 10 mg/kg, ip measured upto 24 hrs by LC-MS/MS analysis; type: ADME, organism-based; conditions: in vivo
[5] = AUC (0 to t) in Sprague-Dawley rat at 10 mg/kg, ip measured upto 24 hrs by LC-MS/MS analysis; type: ADME, organism-based; conditions: in vivo
[6] = MRT (0 to t) in Sprague-Dawley rat at 10 mg/kg, ip measured upto 24 hrs by LC-MS/MS analysis; type: ADME, organism-based; conditions: in vivo
[7] = Toxicity in BALB/c nude mouse subcutaneously injected with human Huh-7 cells assessed as change in body weight at 10 mg/kg, ip administered once daily measured after 14 days; type: organism-based; conditions: in vivo, 336 h, time 14 day
[8] = system: SK-HEP1; test: Induction of cell cycle arrest in human SK-HEP1 cells assessed as accumulation of cells at S phase 80 nM measured after 24 hrs by flow cytometric assay (reference value: 30.04%); type: functional
[9] = system: SK-HEP1; test: Induction of cell cycle arrest in human SK-HEP1 cells assessed as accumulation of cells at G1 phase 20 nM measured after 24 hrs by flow cytometric assay (reference value: 47.55%); type: functional
[10] = system: SK-HEP1; test: Induction of cell cycle arrest in human SK-HEP1 cells assessed as accumulation of cells at S phase 20 nM measured after 24 hrs by flow cytometric assay (reference value: 30.04%); type: functional
[11] = system: SK-HEP1; test: Induction of cell cycle arrest in human SK-HEP1 cells assessed as accumulation of cells at G1 phase 40 nM measured after 24 hrs by flow cytometric assay (reference value: 47.55%); type: functional
[12] = system: Huh-7; test: Induction of apoptosis in human Huh-7 cells assessed as early apoptotic cells at 80 nM measured after 24 hrs by Annexin-V-FITC/PI analysis (reference value: 1.04%); type: functional
[13] = system: Huh-7; test: Induction of apoptosis in human Huh-7 cells assessed as necrotic cells at 20 nM measured after 24 hrs by Annexin-V-FITC/PI analysis (reference value: 0.27%); type: functional
[14] = system: Huh-7; test: Induction of apoptosis in human Huh-7 cells assessed as viable cells at 40 nM measured after 24 hrs by Annexin-V-FITC/PI analysis (reference value: 97.46%); type: functional; conditions: read-out: Activity
[15] = system: Huh-7; test: Induction of apoptosis in human Huh-7 cells assessed as early apoptotic cells at 40 nM measured after 24 hrs by Annexin-V-FITC/PI analysis (reference value: 1.04%); type: functional
[16] = system: SK-HEP1; test: Induction of apoptosis in human SK-HEP1 cells assessed as late apoptotic cells at 20 nM measured after 24 hrs by Annexin-V-FITC/PI analysis (reference value: 0.64%); type: functional
[17] = system: SK-HEP1; test: Induction of apoptosis in human SK-HEP1 cells assessed as viable cells at 40 nM measured after 24 hrs by Annexin-V-FITC/PI analysis (reference value: 97.20%); type: functional; conditions: read-out: Activity
[18] = system: Huh-7; test: Induction of apoptosis in human Huh-7 cells assessed as loss of mitochondrial membrane potential by measuring JC-1 stained cells at 40 nM measured after 24 hrs by JC-1 staining based flow cytometry (reference value: 2.27%); type: functional
[19] = system: SK-HEP1; test: Induction of apoptosis in human SK-HEP1 cells assessed as loss of mitochondrial membrane potential by measuring JC-1 stained cells at 20 nM measured after 24 hrs by JC-1 staining based flow cytometry (reference value: 0.49%); type: functional
[20] = system: Huh-7; test: Induction of apoptosis in human Huh-7 cells assessed as ROS generation by measuring DCFH2-DA stained cells at 40 nM measured after 24 hrs […] (reference value: 0.45%); type: functional
[21] = system: SK-HEP1; test: Induction of apoptosis in human SK-HEP1 cells assessed as ROS generation by measuring DCFH2-DA stained cells at 80 nM measured after 24 hrs […] (reference value: 0.14%); type: functional
[22] = system: SK-HEP1; test: Induction of apoptosis in human SK-HEP1 cells assessed as ROS generation by measuring DCFH2-DA stained cells at 20 nM measured after 24 hrs […] (reference value: 0.14%); type: functional
[23] = system: Huh-7; test: Inhibition of cell migration in human Huh-7 cells at 20 nM measured for 24 hrs by scratch wound healing assay; type: functional, cell-based
[24] = system: Huh-7; test: Inhibition of cell invasion in human Huh-7 cells assessed as decrease in number of cells migration into lower compartment at 20 nM measured after 24 hrs by transwell assay; type: functional, cell-based
[25] = system: SK-HEP1; test: Inhibition of cell migration in human SK-HEP1 cells at 40 nM measured for 24 hrs by scratch wound healing assay; type: functional, cell-based
[26] = Toxicity in BALB/c nude mouse subcutaneously injected with human Huh-7 cells assessed as changes in heart tissue at 10 mg/kg, ip administered once daily measured after 14 days by H and E staining based assay; type: organism-based; conditions: in vivo, 336 h, time 14 day
[27] = Toxicity in BALB/c nude mouse subcutaneously injected with human Huh-7 cells assessed as changes in spleen tissue at 10 mg/kg, ip administered once daily measured after 14 days by H and E staining based assay; type: organism-based; conditions: in vivo, 336 h, time 14 day
[28] = Toxicity in BALB/c nude mouse subcutaneously injected with human Huh-7 cells assessed as change in red blood cells at 10 mg/kg, ip administered once daily measured after 14 days; type: organism-based; conditions: in vivo, 336 h, time 14 day

C[N+](C)(C)CCC(=O)Oc1ccc2[nH]c3c(c2c1)CCN1C(=O)c2cc(F)cc(F)c2N(c2cccc(F)c2)C31.[I-] (stereo not drawn)
pIC50 [1]: 7.05 | pIC50 [2]: 6.96 | remaining at 48 h [3]: 43.9% | half-life [4]: 3.15 h | AUC(0-t) at 24 h [5]: 1540 ng·h/mL | MRT last at 24 h [6]: 4.64 h | Activity [7]: Non-Toxic | Activity [8]: 18.41% | Activity [9]: 47.61% | Activity [10]: 28.78% | Activity [11]: 43.86% | Activity [12]: 7.8% | Activity [13]: 0.11% | viability at 0.04 µM [14]: 94.2% | Activity [15]: 2.84% | Activity [16]: 0.71% | viability at 0.04 µM [17]: 93.1% | Activity [18]: 3.05% | Activity [19]: 0.78% | Activity [20]: 1.09% | Activity [21]: 56.75% | Activity [22]: 0.47% | inhibition [23]: Active | inhibition [24]: Active | inhibition [25]: Active | Activity [26]: Non-Toxic | Activity [27]: Non-Toxic | Activity [28]: Non-Toxic
